Laboratory results published in patent publication US12382955B2, “Peroxyformic acid compositions for membrane filtration cleaning in energy services” (priority 2016, dated 2025).

Assays:
[1] = test system: oil and gas biofilm; assay: Biofilm percent reductions (Example 5)
[2] = Membrane compatibility, simulated exposure soak, clean water flux and salt rejection (Example 4); details: Koch HRX, PFA 300 ppm, 77 F
Protocol: The effects of PFA on reverse osmosis members which contain a polyamide structure in comparison with known control chemicals were tested. Three different membranes were tested including Koch HRX, Hydranautics CPA5 and Hydranautics ESPA2+. Membranes were soaked in duplicate, in chemistries according to Table 4.
Membranes were then conditioned in Ultrasil 110 at a pH of 11 for 90 minutes at 50° C., followed by a rinse in DI water.
Each of the chemistries, with the exception of PFA was refreshed daily. PFA was refreshed hourly. After the simulated exposure the membranes are rinsed with DI water and placed on the Flat Sheet Membrane skid (Model M20). The membranes were rinsed with DI water for 24 hours at standard UF pressure and temperature. Once 24 hours was completed the membranes were subjected to alkaline conditioning step until solution pH is 11. 15.14 grams of NaCl was added to the recirculating water (2000 ppm NaCl) and the system was allowed to continue circulating. The conductivity of each permeate tube and feed was then measured and recorded and shown as percent rejection. The percent rejection was determined by (conductivity of the feed−conductivity of the permeate)/(conductivity of the feed).

Compound | Biofilm percent reductions, ATP ([1]; 250 ppm) [%] | Biofilm percent reductions, Total biofilm ([1]; 250 ppm) [%] | inhibition at 250 ppm ([1]; read-out: Biofilm percent reductions, Viable biofilm) [%] | Biofilm percent reductions, ATP ([1]; 75 ppm active) [%] | Biofilm percent reductions, Total biofilm ([1]; 75 ppm active) [%] | Biofilm percent reductions, Viable biofilm ([1]; 75 ppm active) [%] | Water Flux (LMH) PFA 1 YR ([2]; simulated 1 year, 78 hr soak) [LMH] | Water Flux (LMH) PFA 3 YR ([2]; simulated 3 years, 234 hr soak) [LMH]
O=CCCCC=O [Glutaraldehyde, reference compound] | 94 | 58 | 81 | – | – | – | – | –
O=COO [PFA, peroxyformic acid] | – | – | – | 99 | 85 | 96 | 65.40 | 75.84
